PMC4215513, “Effect of the Pleiotropic Drug CNB-001 on Tissue Plasminogen Activator (tPA) Protease Activity in vitro: Support for Combination Therapy to Treat Acute Ischemic Stroke” (Journal of neurology & neurophysiology, 2014)
Where a name gives a salt, the structure may show the parent alone.

Columns and labels:
[1] = target: T1, tissue plasminogen activator (tPA) (Homo sapiens, UniProt P00750); experiment: chromogenic substrate protease assay with recombinant tPA; […] inhibition at […]; IC50 extrapolated ([…] min […], […] min […]); assay type: biochemical
T1 construct: gene PLAT; Human recombinant tPA (Activase)
T1 sequence (P00750 36-562): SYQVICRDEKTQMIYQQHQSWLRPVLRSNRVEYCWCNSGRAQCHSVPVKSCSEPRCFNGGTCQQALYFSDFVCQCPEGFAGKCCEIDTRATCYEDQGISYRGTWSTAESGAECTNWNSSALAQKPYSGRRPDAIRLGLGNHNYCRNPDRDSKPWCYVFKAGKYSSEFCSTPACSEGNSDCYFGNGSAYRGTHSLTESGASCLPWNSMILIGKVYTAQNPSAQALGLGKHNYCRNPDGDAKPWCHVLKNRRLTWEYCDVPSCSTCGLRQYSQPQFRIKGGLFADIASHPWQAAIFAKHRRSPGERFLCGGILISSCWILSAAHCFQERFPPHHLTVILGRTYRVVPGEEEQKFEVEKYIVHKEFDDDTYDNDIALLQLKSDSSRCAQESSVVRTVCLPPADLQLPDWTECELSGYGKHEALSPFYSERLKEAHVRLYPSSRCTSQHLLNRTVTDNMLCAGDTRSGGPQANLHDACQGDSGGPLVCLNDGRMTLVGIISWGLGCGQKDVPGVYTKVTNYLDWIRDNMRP

[2] = target: T1, tissue plasminogen activator (tPA); experiment: chromogenic substrate protease assay with recombinant tPA (positive control inhibitor); assay type: biochemical

Compound | IC50 [1] [µM] | inhibition at 5 µM [2] [%]
COc1cc(/C=C/c2cc(/C=C/c3ccc(O)c(OC)c3)n(-c3ccccc3)n2)ccc1O [CNB-001] | ~65.2 | –
N=C(N)c1ccc(C=C2CCCCC(=Cc3ccc(C(=N)N)cc3)C2=O)cc1 [tPA-STOP, 2,7-Bis-(4-amidinobenzylidene)-cycloheptan-1-one dihydrochloride] | – | 83.4
